Results on nine compounds are retold here after patent publication EP4772510A2, “BENZAZEPINONE COMPOUND AND USE THEREOF” (HANGZHOU BIO-SINCERITY PHARMA-TECHCO., LTD., priority 2023, dated 2025).

One may read the EC50 as the concentration that produces a half-maximal response.

One assay relates to U937 cells. The assay can be described thus: Inhibition of TNF-α-induced necroptosis of U937 cells (CCK-8 assay). The format is cell-based, human. The following applies: Homo sapiens, U-937, TNF-α 20 ng/mL + BV6 2 µM + Z-VAD-FMK 20 µM, 18 h. The essentials: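 U937 cells (3.6 × 10^4/well) rested 6 h, then exposed to TNF-α 20 ng/mL, BV6 2 µM and Z-VAD-FMK 20 µM plus compound (8-point 3-fold series, 1000–0.46 nM, duplicate) for 18 h. Viability by CCK-8, absorbance at 450 nm after 2-4 h at 37 °C; EC50 calculated.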
Regarding `CN1C(=O)[C@@H](NC(=O)c2nnc(Cc3ccccc3)[nH]2)COc2ccccc21` [GSK2982772, (S)-5-benzyl-N-(5-methyl-4-oxo-2,3,4,5-tetrahydrobenzo[b][1,4]oxazepin-3-yl)-4H-1,2,4-triazole-3-carboxamide, reference compound], the EC50 fell in the range of 10 to 100 nM.
Regarding `Cn1cc(C#Cc2cc3c4c(c2)CCN4C(=O)C(NC(=O)c2ncn(Cc4c(F)cccc4F)n2)CC3)cn1` (stereo not drawn) [III-1, 1-(2,6-difluorobenzyl)-N-(9-((1-methyl-1H-pyrazol-4-yl)ethynyl)-4-oxo-1,2,3,4,6,7-hexahydroazepino[3,2,1-hi]indol-3-yl)-1H-1,2,4-triazole-3-carboxamide], the EC50 was < 5 nM.
For `Cn1cc(C#Cc2cc3c4c(c2)CCN4C(=O)C(NC(=O)c2ncn(Cc4cc(F)ccc4F)n2)CC3)cn1` (stereo not drawn) [III-10, 1-(2,5-difluorobenzyl)-N-(9-((1-methyl-1H-pyrazol-4-yl)ethynyl)-4-oxo-1,2,3,4,6,7-hexahydroazepino[3,2,1-hi]indol-3-yl)-1H-1,2,4-triazole-3-carboxamide], the EC50 is < 5 nM.
Turning to `Cn1cc(C#Cc2cc3c4c(c2)CCN4C(=O)C(NC(=O)c2ncn(Cc4ccc(F)c(F)c4)n2)CC3)cn1` (stereo not drawn) [III-12, 1-(3,4-difluorobenzyl)-N-(9-((1-methyl-1H-pyrazol-4-yl)ethynyl)-4-oxo-1,2,3,4,6,7-hexahydroazepino[3,2,1-hi]indol-3-yl)-1H-1,2,4-triazole-3-carboxamide], the EC50 was in the range of 5 to 10 nM.
On the same count and under the same terms, the result for `O=C(NC1CCc2cc(C#Cc3cnn(C(F)F)c3)cc3c2N(CC3)C1=O)c1ncn(Cc2cc(F)ccc2F)n1` (stereo not drawn) [III-19, 1-(2,5-difluorobenzyl)-N-(9-((1-(difluoromethyl)-1H-pyrazol-4-yl)ethynyl)-4-oxo-1,2,3,4,6,7-hexahydroazepino[3,2,1-hi]indol-3-yl)-1H-1,2,4-triazole-3-carboxamide] reads 5 to 10 nM; that for `O=C(NC1CCc2cc(C#Cc3cnn(C(F)F)c3)cc3c2N(CC3)C1=O)c1ncn(Cc2ccccc2F)n1` (stereo not drawn) [III-21, N-(9-((1-(difluoromethyl)-1H-pyrazol-4-yl)ethynyl)-4-oxo-1,2,3,4,6,7-hexahydroazepino[3,2,1-hi]indol-3-yl)-1-(2-fluorobenzyl)-1H-1,2,4-triazole-3-carboxamide], < 5 nM.
For the compound `C#Cc1cc2c3c(c1)CCN3C(=O)C(NC(=O)c1ncn(Cc3c(F)cccc3F)n1)CC2` (stereo not drawn) [III-26, 1-(2,6-difluorobenzyl)-N-(9-ethynyl-4-oxo-1,2,3,4,6,7-hexahydroazepino[3,2,1-hi]indol-3-yl)-1H-1,2,4-triazole-3-carboxamide], the half-maximal effective concentration (EC50) is < 5 nM.

The same assay, now with this note: TNF-α 20 ng/mL + BV6 2 µM + Z-VAD-FMK 20 µM, 18 h.
Turning to `O=C(NC1CCc2cc(C#Cc3cnn(C(F)F)c3)cc3c2N(CC3)C1=O)c1ncn(Cc2c(F)cccc2F)n1` (stereo not drawn) [III-17, 1-(2,6-difluorobenzyl)-N-(9-((1-(difluoromethyl)-1H-pyrazol-4-yl)ethynyl)-4-oxo-1,2,3,4,6,7-hexahydroazepino[3,2,1-hi]indol-3-yl)-1H-1,2,4-triazole-3-carboxamide], the EC50 was < 5 nM.
Same read-out and setting: the result for “N-(9-((1-(difluoromethyl)-1H-pyrazol-4-yl)ethynyl)-4-oxo-1,2,3,4,6,7-hexahydroazepino[3,2,1-hi]indol-3-yl)-1-(4-methylbenzyl)-1H-1,2,4-triazole-3-carboxamide [III-25]” reads 10 to 100 nM.
